Like-named read-outs stand apart in the source and are kept apart here.
How the values were obtained:
SMN2 mRNA = assay: RT-qPCR splicing assay, SMN2 canonical junction (CJ) mRNA; type: cell-based, human; details: Homo sapiens, read-out: SMN2 IC50 (decrease in CJ mRNA levels)
Method in brief: (§1)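 K562/A673 cells, 11-pt 3-fold compound titration from 10 uM final, DMSO ≤0.25%, 24 h 37 °C 5% CO2; lyse (DNase I or Igepal/Tris buffer pH 7.4); RT-qPCR for CJ isoform vs housekeeping gene (GAPDH/GUSB/PPIA).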

[1] = system: K562 (human chronic myelogenous leukemia) cells; assay: Cell Titer Glo 2.0 cell viability assay; type: cell-based; details: Homo sapiens, K562, 72 h, read-out: K562 GI50
Target C [2] = assay: HiBiT protein abundance assay, Target C (Promega Nano-Glo HiBiT Lytic Detection System, knock-in K562 cell line); type: cell-based, human; details: Homo sapiens, K562, 24 h, read-out: Effect on protein abundance, Target C (IC50 category)
Procedure: (§2) • Promega Nano-Glo HiBiT Lytic Detection System (cat #N3030) • Corning 384-well TC-treated microplates (cat #3570) • Synthego Engineered Cells Knock-In Clones
(§3) Cells were maintained in IMDM with 10% FBS. Before the assay, cells were diluted with […] growth media (IMDM+[…] media) and were seeded in a 384-well plate at a density of 10,000 cells/well (for each cell line listed in Table 5). Each compound was prepared as a 10-point 3-fold serial dilution in DMSO with the top dose at a final concentration of 10 μM in the well. Unmodified K562 cells were added at the previously specified density with DMSO to serve as an assay baseline and positive control (PC) and DMSO only with the respective modified cell lines was added to the negative control (NC) columns. Final DMSO concentration was kept at or below 0.25%. Treated cell plates were placed in an incubator at 37° C. with […] for 24 hours. After 24 hours, 25 μL of Complete HiBit Lytic reagent was added to each well at room temperature (e.g. one plate requiring 10 mL Lytic Buffer, 100 μL LgBiT Protein, 200 μL Lytic Substrate), shaken for 5 minutes at 600 RPM, then left to sit for 10 minutes for signal to stabilize before reading on a Spark Cyto plate reader (Tecan) with a 500 ms measurement time.
(§4) To determine compound effects on protein abundance of each target in Table 5, the percent response for each respective cell line was calculated at each compound concentration as follows:
(§5) For the normalized response at each concentration, a four-parameter logistical regression was fit to the data and the response was interpolated at the […] to determine a concentration for protein abundance at […] the untreated control.

MYB = assay: HiBiT protein abundance assay, MYB HiBiT K562 cell line; type: cell-based, human
Procedure: (§6) Compounds described herein were used to screen for effects on quantitative protein abundance using a HiBit assay system (Promega). Quantitative protein abundance was determined by measuring the protein levels of HiBit-tagged protein targets expressed in cell culture via luminescence using the Nano-Glo HiBiT Lytic Detection System, which uses a split complementation assay format to reconstitute NanoBiT enzyme to generate a luminescent signal. A protein abundance assay was developed such that endogenous protein targets could be modified with the HiBiT peptide tag and their abundance could be assessed after compound treatment. Briefly, K562 cell lines containing a HiBiT-modification were treated with various compounds described herein (e.g., compounds of Formulas (I), (II), (III), (IV), (V), (VI), (VII), (VIII), or (IX)). After treatment for 24 hours, the protein abundance of a specific target was determined by measuring luminescence.
as §2, §3, §4, §5

Target C [3] = assay: RT-qPCR splicing assay panel, Target C canonical junction (CJ) mRNA; type: cell-based, human; details: Homo sapiens, read-out: Target C IC50 (decrease in CJ mRNA levels)
Method in brief: as §1

HTT = assay: HiBiT protein abundance assay, HTT HiBiT K562 cell line; type: cell-based, human
Procedure: as §6, §2, §3, §4, §5

HTT mRNA = assay: RT-qPCR splicing assay, HTT canonical junction (CJ) and alternative junction (AJ) mRNA; type: cell-based, human; details: Homo sapiens
Method in brief: (§7)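 Splicing switches were read by TaqMan RT-qPCR on lysates, quantifying exon-exon junctions of the canonical and alternative-exon isoforms. Lysates came from K562 (GAPDH/GUSB reference) or A673 (PPIA reference) cells exposed 24 h to compound in 11 threefold steps from 10 uM, with DMSO ≤0.25%.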

MYB mRNA = assay: RT-qPCR splicing assay, MYB canonical junction (CJ) and alternative junction (AJ) mRNA; type: cell-based, human; details: Homo sapiens
Method in brief: as §7

[4] = Table 5 panel, canonical junction qPCR, compound concentration having 50% response in CJ decrease
[5] = K562 cells, 72 hours, Cell Titer Glo 2.0
[6] = HiBiT K562 cell line, 24 hours, top dose 10 μM
[7] = HiBiT K562 cell line, 24 hours, top dose 10 μM; read-out: Effect on protein abundance, MYB (IC50 category)
[8] = HiBiT K562 cell line, 24 hours, top dose 10 μM; read-out: Effect on protein abundance, HTT (IC50 category)
[9] = decrease in HTT canonical junction (CJ) mRNA, RT-qPCR, read-out: HTT CJ IC50
[10] = increase in HTT alternative junction (AJ) mRNA, RT-qPCR, read-out: HTT AJ AC50
[11] = Table 5 panel, canonical junction qPCR, compound concentration having 50% response in CJ decrease, read-out: HTT IC50 (decrease in CJ mRNA levels)

| SMILES | GI50 [1, 5] [nM] | IC50 (Target C [2]; [6]) [nM] | IC50 (MYB; [7]) [nM] | IC50 (HTT; [8]) [nM] | further results |
| --- | --- | --- | --- | --- | --- |
| Cc1cc(-c2ccc3c(=O)n(C4CCNCC4)c(C)nc3c2)cc2cn(C)nc12 [Compound 313] | 1000 to 10000 | > 10000 | 1000 to 10000 | > 10000 | IC50 (SMN2 mRNA; [4]): 100 to 1000 nM; IC50 (Target C [3]; [4]): > 10000 nM; IC50 (HTT mRNA; [9]): > 10000 nM; AC50 (HTT mRNA; [10]): > 10000 nM; IC50 (HTT mRNA; [11]): > 10000 nM |
| O=c1c2c(F)cc(-c3cn[nH]c3)cc2ncn1C1CCNCC1 [Compound 321] | > 10000 | > 10000 | > 10000 | > 10000 | IC50 (MYB mRNA; decrease in MYB canonical junction (CJ) mRNA, RT-qPCR, read-out: MYB CJ IC50): 1000 to 10000 nM; AC50 (MYB mRNA; increase in MYB alternative junction (AJ) mRNA, RT-qPCR, read-out: MYB AJ AC50): 1000 to 10000 nM; IC50 (HTT mRNA; [9]): > 10000 nM; AC50 (HTT mRNA; [10]): > 10000 nM |
| Cc1cn2nc(-c3ccc4c(=O)n(C5CCNCC5)ccc4c3)cc(CC(=O)N(C)C)c2n1 [Compound 532, N,N-dimethyl-2-[2-methyl-6-[1-oxo-2-(4-piperidyl)-6-isoquinolyl]imidazo[1,2-b]pyridazin-8-yl]acetamide] |  |  |  |  | IC50 (SMN2 mRNA): < 100 nM; GI50 [1]: 100 to 1000 nM; IC50 (Target C [2]): 100 to 1000 nM; IC50 (MYB; read-out: Effect on protein abundance, MYB (IC50 category); HiBiT K562 cell line, 24 hours, top dose 10 μM): 100 to 1000 nM; IC50 (Target C [3]): 1000 to 10000 nM; AC50 (MYB mRNA; read-out: MYB AJ AC50 (nM)): 100 to 1000 nM; IC50 (MYB mRNA; read-out: MYB CJ IC50 (nM)): 100 to 1000 nM; IC50 (MYB mRNA; read-out: MYB IC50 (decrease in CJ mRNA levels)): 100 to 1000 nM; IC50 (HTT; read-out: Effect on protein abundance, HTT (IC50 category); HiBiT K562 cell line, 24 hours, top dose 10 μM): 100 to 1000 nM; AC50 (HTT mRNA; read-out: HTT AJ AC50 (nM)): 100 to 1000 nM; IC50 (HTT mRNA; read-out: HTT CJ IC50 (nM)): 100 to 1000 nM; IC50 (HTT mRNA; read-out: HTT IC50 (decrease in CJ mRNA levels)): 100 to 1000 nM |
| Cc1c(O)c(-c2ncc3c(=O)n(C4CCC(N)C4)ccc3n2)cc2cn(C)nc12 (centres unmarked) [Compound 1321] | 100 to 1000 | 1000 to 10000 | 100 to 1000 | 100 to 1000 |  |
| Cc1cn2nc(-c3cc(F)c4c(=O)n(C5CCN(C)C6(CC6)C5)ncc4c3)cc(C)c2n1 (centres unmarked) [Compound 565] | 100 to 1000 | < 100 | < 100 | < 100 |  |
| Cc1c(O)c(-c2ncc3c(=O)n(C45CCC(N)(CC4)CC5)ccc3n2)cc2cn(C)nc12 [Compound 1323] | < 100 | > 10000 | < 100 | 1000 to 10000 |  |
| Cc1cn2cc(-c3ccc4c(=O)n([C@H]5CCNC5)cc(C)c4c3)cc(F)c2n1 [Compound 451, (S)-6-(8-fluoro-2-methylimidazo[1,2-a]pyridin-6-yl)-4-methyl-2-(pyrrolidin-3-yl)isoquinolin-1(2H)-one] | 1000 to 10000 | > 10000 | 1000 to 10000 | 1000 to 10000 | IC50 (SMN2 mRNA; [4]): 100 to 1000 nM; IC50 (Target C [3]; [4]): > 10000 nM; IC50 (MYB mRNA; Table 5 panel, canonical junction qPCR, compound concentration having 50% response in CJ decrease, read-out: MYB IC50 (decrease in CJ mRNA levels)): 1000 to 10000 nM; IC50 (HTT mRNA; [11]): > 10000 nM |
| Cc1nc2c(o1)CN(c1cc(F)c3c(=O)n(C4CCNCC4)cnc3c1)CC2 [Compound 508, 5-fluoro-7-{2-methyl-4H,6H,7H-[1,3]oxazolo[5,4-c]pyridin-5-yl}-3-(piperidin-4-yl)quinazolin-4-one; trifluoroacetic acid] | > 10000 | > 10000 | 1000 to 10000 | > 10000 |  |
| Cc1c(O)c(-c2ncc3c(=O)n([C@@H]4CC[C@H](N)C4)ccc3n2)cc2cn(C)nc12 [Compound 1333] | 100 to 1000 | 1000 to 10000 | 100 to 1000 | 100 to 1000 |  |
| Cn1cc2nc(-c3cc(O)c4c(=O)n(C5CCNC6(CC6)C5)ncc4c3)ccc2n1 (centres unmarked) [Compound 562] | 100 to 1000 | 100 to 1000 | 100 to 1000 | 100 to 1000 |  |
| Cc1cn2nc(-c3cc(N)c4c(=O)n(C5CCNCC5)ncc4c3)cc(C)c2n1 [Compound 566] | 100 to 1000 | 100 to 1000 | 100 to 1000 | 100 to 1000 |  |
| COc1cc2c(=O)n(C3CCNCC3)cnc2cc1-c1cc(C)c2nc(C)cn2n1 [Compound 504, 7-{2,8-dimethylimidazo[1,2-b]pyridazin-6-yl}-6-methoxy-3-(piperidin-4-yl)quinazolin-4-one] | > 10000 | > 10000 | > 10000 | > 10000 |  |
| Cc1cn2nc(-c3cc(O)c4c(=O)n([C@@H]5CCNC6(CC6)C5)ncc4c3)cc(C)c2n1 [Compound 470] | 100 to 1000 | < 100 | 100 to 1000 | < 100 |  |
| Cc1c(O)c(-c2ccc3c(=O)n(C4CCNCC4)ccc3n2)cc2cn(C)nc12 [Compound 1234] | < 100 | < 100 | < 100 | < 100 |  |
| Cc1cn2nc(-c3cc(O)c4c(=O)n(C5CCNC6(CC6)C5)ccc4c3)cc(C)c2n1 (centres unmarked) [Compound 466, 6-(2,8-dimethylimidazo[1,2-b]pyridazin-6-yl)-8-hydroxy-2-(4-azaspiro[2.5]octan-7-yl)isoquinolin-1(2H)-one] | < 100 | < 100 | < 100 | < 100 |  |
| Cc1cn2cc(-c3ccc4c(=O)c(C5CCNCC5)cn(C)c4c3)nc(C)c2n1 [Compound 591] | 1000 to 10000 | > 10000 | 1000 to 10000 | > 10000 |  |
| Cc1c(O)c(-c2ncc3c(=O)n([C@H]4[C@@H]5CNC[C@@H]54)ccc3n2)cc2cn(C)nc12 [Compound 1326] | 100 to 1000 | 100 to 1000 | < 100 | 100 to 1000 |  |
| Cc1c(O)c(-c2ncc3c(=O)n(C45CC(N)(C4)C5)ccc3n2)cc2cn(C)nc12 [Compound 1322] | 1000 to 10000 | 1000 to 10000 | 1000 to 10000 | > 10000 |  |
| Cc1c(O)c(-c2ncc3c(=O)n(C4CC5CC4CN5)ccc3n2)cc2cn(C)nc12 (centres unmarked) [Compound 1325] | 100 to 1000 | 1000 to 10000 | 100 to 1000 | 100 to 1000 |  |
| Cc1cn2cc(-c3ncc4c(=O)n(C5CCNCC5)c(C)cc4n3)cc(F)c2n1 [Compound 1327] | 100 to 1000 | > 10000 | 100 to 1000 | > 10000 |  |

— patent US20250332173A1, “COMPOUNDS AND METHODS FOR MODULATING NUCLEIC ACID SPLICING” (REMIX THERAPEUTICS INC., priority 2021, published 2025)
